Data as given in ChEMBL document CHEMBL4190267, “Discovery of potent molecular chimera (CM358) to treat human metastatic melanoma” (Eur J Med Chem, 2017).
Activity calls are given as the source filed them. No cut-off for these calls is given here.

What was measured:
A 172 = assay: Growth inhibition of human A172 cells preincubated for 6 hrs followed compound washout measured after 24 hrs by XTT assay; format: functional
WM 266-4 [1] = assay: Cell cycle arrest in human WM266.4 cells assessed as accumulation at G2 phase at 10 uM after 2 hrs by propidium iodide staining based flow cytometry (reference value: 11%); format: functional
WM 266-4 [2] = assay: (§1) Antitumor activity against human WM266.4 cells xenografted in athymic Foxn1 nu mouse assessed as tumor growth inhibition at 25 mg/kg, ip administered once daily for 3 days followed by resting period of 4 days repeated for 4 weeks starting from 5 days post tumor inoculation measured on day 21 relative to control; format: functional; conditions: WM 266-4, ip, read-out: TGI
MDA-MB-231 = assay: Growth inhibition of human MDA-MB-231 cells preincubated for 6 hrs followed compound washout measured after 24 hrs by XTT assay; format: functional
WM 266-4 [3] = assay: Induction of apoptosis in human WM266.4 cells assessed as live cells at 25 uM after 8 hrs by Annexin V-FITC/propidium iodide staining based flow cytometry (reference value: 94.7%); format: functional
WM 266-4 [4] = assay: Induction of apoptosis in human WM266.4 cells assessed as live cells at 10 uM after 24 hrs by Annexin V-FITC/propidium iodide staining based flow cytometry (reference value: 94.7%); format: functional
WM 266-4 [5] = assay: Induction of apoptosis in human WM266.4 cells assessed as live cells at 10 uM after 8 hrs by Annexin V-FITC/propidium iodide staining based flow cytometry (reference value: 94.7%); format: functional
WM 266-4 [6] = assay: Induction of apoptosis in human WM266.4 cells assessed as necrotic cells at 25 uM after 24 hrs by Annexin V-FITC/propidium iodide staining based flow cytometry (reference value: 1.22%); format: functional
Mus musculus [7] = assay: Toxicity in athymic Foxn1 nu mouse assessed as abnormal physiological changes at 10 mg/kg, ip administered once daily for 3 days followed by resting period of 4 days repeated for 4 weeks; format: organism-based; conditions: in vivo
[8] = Drug metabolism in human WM266.4 cells assessed as chlorambucil after 48 hrs by LC-MS analysis; format: ADME, cell-based; conditions: wm 266-4, 48 h
WM 266-4 [9] = assay: Antitumor activity against human WM266.4 cells xenografted in athymic Foxn1 nu mouse assessed as mouse survival at 10 mg/kg, ip administered once daily for 3 days followed by resting period of 4 days repeated for 4 weeks starting from 5 days post tumor inoculation relative to control; format: functional; conditions: WM 266-4, ip
WM 266-4 [10] = assay: as §1, with “at 10” for “at 25”, “for 7” for “for 3”, “of 2” for “of 4”; format: functional; conditions: WM 266-4, ip, read-out: TGI
[11] = Half life in pH 7.4 PBS buffer by LC-MS analysis; format: physicochemical
WM 266-4 [12] = assay: Cell cycle arrest in human WM266.4 cells assessed as accumulation at G1 phase at 10 uM after 24 hrs by propidium iodide staining based flow cytometry (reference value: 59%); format: functional
WM 266-4 [13] = assay: Growth inhibition of human WM266.4 cells at 1 uM incubated up to 96 hrs by XTT assay; format: functional, cell-based
WM 266-4 [14] = assay: Cell cycle arrest in human WM266.4 cells assessed as accumulation at S phase at 10 uM after 8 hrs by propidium iodide staining based flow cytometry (reference value: 27%); format: functional
WM 266-4 [15] = assay: Induction of apoptosis in human WM266.4 cells assessed as live cells at 25 uM after 24 hrs by Annexin V-FITC/propidium iodide staining based flow cytometry (reference value: 94.7%); format: functional
WM 266-4 [16] = assay: Induction of apoptosis in human WM266.4 cells assessed as early apoptotic cells at 10 uM after 2 hrs by Annexin V-FITC/propidium iodide staining based flow cytometry (reference value: 2.64%); format: functional
WM 266-4 [17] = assay: Antitumor activity against human WM266.4 cells xenografted in athymic Foxn1 nu mouse assessed as tumor growth inhibition at 10 mg/kg, ip administered once daily for 3 days followed by resting period of 4 days repeated for 4 weeks starting from 5 days post tumor inoculation measured on day 19; format: functional, organism-based
PC-3 = assay: Growth inhibition of human PC3 cells preincubated for 6 hrs followed compound washout measured after 24 hrs by XTT assay; format: functional
WM 266-4 [18] = assay: Antitumor activity against human WM266.4 cells xenografted in athymic Foxn1 nu mouse assessed as tumor growth inhibition at 5 mg/kg, ip administered once daily for 7 days followed by resting period of 2 days repeated for 4 weeks starting from 5 days post tumor inoculation measured on day 21; format: functional, organism-based
WM 266-4 [19] = assay: Induction of apoptosis in human WM266.4 cells assessed as live cells at 25 uM after 2 hrs by Annexin V-FITC/propidium iodide staining based flow cytometry (reference value: 94.7%); format: functional
WM 266-4 [20] = assay: Induction of apoptosis in human WM266.4 cells assessed as late apoptotic cells at 10 uM after 8 hrs by Annexin V-FITC/propidium iodide staining based flow cytometry (reference value: 1.41%); format: functional
WM 266-4 [21] = assay: Growth inhibition of human WM266.4 cells at 5 uM incubated up to 72 hrs by XTT assay relative to control; format: functional; conditions: WM 266-4, 72 h, read-out: GI
Mus musculus [22] = assay: Toxicity in athymic Foxn1 nu mouse assessed as abnormal gross behavioral changes at 10 mg/kg, ip administered once daily for 3 days followed by resting period of 4 days repeated for 4 weeks; format: organism-based; conditions: in vivo
Mus musculus [23] = assay: Toxicity in athymic Foxn1 nu mouse assessed as effect on body weight at 10 mg/kg, ip administered once daily for 3 days followed by resting period of 4 days repeated for 4 weeks; format: organism-based; conditions: in vivo
WM 266-4 [24] = assay: Antitumor activity against human WM266.4 cells xenografted in athymic Foxn1 nu mouse assessed as tumor growth inhibition at 10 mg/kg, ip administered once daily for 7 days followed by resting period of 2 days repeated for 4 weeks starting from 5 days post tumor inoculation measured on day 19; format: functional, organism-based
WM 266-4 [25] = assay: Induction of apoptosis in human WM266.4 cells assessed as early apoptotic cells at 25 uM after 24 hrs by Annexin V-FITC/propidium iodide staining based flow cytometry (reference value: 2.64%); format: functional
WM 266-4 [26] = assay: Cell cycle arrest in human WM266.4 cells assessed as accumulation at S phase at 10 uM after 24 hrs by propidium iodide staining based flow cytometry (reference value: 27%); format: functional
WM 266-4 [27] = assay: Induction of necrosis in human WM266.4 cells at 25 uM after 2 to 6 hrs by Annexin V-FITC/propidium iodide staining based fluorescence microscopic method; format: functional, cell-based
WM 266-4 [28] = assay: Induction of apoptosis in human WM266.4 cells assessed as late apoptotic cells at 25 uM after 24 hrs by Annexin V-FITC/propidium iodide staining based flow cytometry (reference value: 1.41%); format: functional
WM 266-4 [29] = assay: Induction of apoptosis in human WM266.4 cells assessed as necrotic cells at 25 uM after 2 hrs by Annexin V-FITC/propidium iodide staining based flow cytometry (reference value: 1.22%); format: functional
WM 266-4 [30] = assay: Induction of apoptosis in human WM266.4 cells assessed as early apoptotic cells at 10 uM after 24 hrs by Annexin V-FITC/propidium iodide staining based flow cytometry (reference value: 2.64%); format: functional
WM 266-4 [31] = assay: Induction of apoptosis in human WM266.4 cells assessed as late apoptotic cells at 25 uM after 8 hrs by Annexin V-FITC/propidium iodide staining based flow cytometry (reference value: 1.41%); format: functional
WM 266-4 [32] = assay: Growth inhibition of human WM266.4 cells at 25 uM after 24 hrs by XTT assay; format: functional, cell-based
[33] = Drug metabolism in human WM266.4 cells assessed as amonafide after 48 hrs by LC-MS analysis; format: ADME, cell-based; conditions: wm 266-4, 48 h

With `CN(C)CCN1C(=O)c2cccc3cc(NC(=O)CCCc4ccc(N(CCCl)CCCl)cc4)cc(c23)C1=O.O=C(O)C(F)(F)F` the GI50 (A 172) was 7.5 µM, the Activity (WM 266-4 [1]) was 15% and the inhibition in vivo at 25 mg/kg (WM 266-4 [2]) was 46%. The GI50 (MDA-MB-231) was 3.1 µM, the Activity (WM 266-4 [3]) was 61.1% and the Activity (WM 266-4 [4]) was 84.5%. The Activity (WM 266-4 [5]) was 82.4%, the Activity (WM 266-4 [6]) was 21.4% and the Activity (Mus musculus [7]) was “Non-Toxic”. The Drug metabolism [8] was “Metabolite_Notdetected”, the survival at 10 mg/kg (WM 266-4 [9]) was 60% and the inhibition in vivo at 10 mg/kg (WM 266-4 [10]) was 40%. The half-life [11] was 25 h, the Activity (WM 266-4 [12]) was 36% and the “growth inhibition (GI)” value (WM 266-4 [13]) was “inactive”. For the same compound, the Activity (WM 266-4 [14]) was 46%, the Activity (WM 266-4 [15]) was 40% and the Activity (WM 266-4 [16]) was 5.05%. For the same compound, the TGI (WM 266-4 [17]) was “Active”, the GI50 (PC-3) was 7.1 µM and the TGI (WM 266-4 [18]) was “inactive”. The Activity (WM 266-4 [19]) was 72.9%, the Activity (WM 266-4 [20]) was 1.59% and the inhibition of growth at 5 µM (WM 266-4 [21]) was 100%. The Activity (Mus musculus [22]) was “Non-Toxic”, the Activity (Mus musculus [23]) was “Non-Toxic” and the TGI (WM 266-4 [24]) was “Active”. The Activity (WM 266-4 [25]) was 18.8%, the Activity (WM 266-4 [26]) was 38% and the Activity (WM 266-4 [27]) was “Active”. For the same compound, the Activity (WM 266-4 [28]) was 19.8%, the Activity (WM 266-4 [29]) was 16.4% and the Activity (WM 266-4 [30]) was 3.9%. For the same compound, the Activity (WM 266-4 [31]) was 5.47%, the “growth inhibition (GI)” value (WM 266-4 [32]) was “Active” and the Drug metabolism [33] was “Metabolite_Notdetected”.
